{"source": "patent US20210030908A1", "about": "(priority 2013, published 2021)", "key": {"anthrax spores": {"tested_on": "anthrax spores", "conditions": "gas or vapor phase application, prior art; cited from earlier work"}, "mold spores": {"tested_on": "mold spores", "conditions": "time averaged concentration about 500 to 1500 ppmv over a 12 hour period, prior art; cited from earlier work"}, "[1]": {"tested_on": "Bacillus atrophaeus spore strip", "format": "cell-based", "conditions": "for Sterilization (6-log reduction of Bacillus atrophaeus), Exposure Time 5 Minutes (CT = 250): 3,000 ppmv ClO2 in air, 700 feet/sec, nozzle 2.54 cm from target, CT in ppmv-hrs, per sample replicate"}}, "note": "Where two headings read alike, the source gives them in different places."}
{"compound": "[O][Cl+][O-]", "note": "[chlorine dioxide]", "values": [{"measurement": "CT found effective for sterilizing anthrax spores", "setting": "anthrax spores", "value": 9000, "unit": "ppmv-hrs"}, {"measurement": "CT found effective for killing mold spores and eliminating allergenic effects", "setting": "mold spores", "value": "6000-18000 ppmv-hrs"}, {"measurement": "Sterilization (6-log reduction of Bacillus atrophaeus), Exposure Time 5 Minutes (CT = 250)", "setting": "[1]; Group 1 spore strips, pre-humidified for one hour at about 75 degrees F.", "value": "− (“−” indicates at least a 6-log reduction of Bacillus atrophaeus)"}, {"measurement": "Sterilization (6-log reduction of Bacillus atrophaeus), Exposure Time 5 Minutes (CT = 250)", "setting": "[1]; Group 2 spore strips, no pre-humidification prior to test", "value": "− (“−” indicates at least a 6-log reduction of Bacillus atrophaeus)"}, {"measurement": "Oxidation of the target", "setting": "[1]; every test (all exposure times, with and without pre-humidification)", "value": "every test resulted in oxidation of the target"}, {"measurement": "Sterilization outcome", "setting": "[1]; no pre-humidification, exposure times of 30 seconds, 1 minute, and 2 minutes, at CT's of 25, 50, and 100", "value": "some sterilization"}, {"measurement": "Sterilization outcome", "setting": "[1]; no pre-humidification, exposure times of at least 5 minutes at a CT of 250", "value": "successful sterilization of all targets"}, {"measurement": "Applications resulting in successful sterilization", "setting": "[1]; pre-humidified application zones, 30 seconds at a CT of 25", "value": 75, "unit": "%"}, {"measurement": "Sterilization outcome", "setting": "[1]; pre-humidified application zones, exposure times greater than or equal to 1 minute, CT greater than or equal to 50", "value": "successful sterilization of the targets for all applications"}]}
